Assay results published in patent US20230276832A1, “ULTRASONIC PREPARATION METHOD OF PROTEIN-DERIVED PEPTIDE-POLYSACCHARIDE NANOPARTICLES LOADED WITH BIOACTIVE COMPONENTS” (JIANGSU UNIVERSITY, priority 2021, published 2023).

Columns and labels:
[1] = Solubility of quercetin in water; type: physicochemical
Protocol: Determination method: The quercetin concentration in the quercetin-loaded composite nanoparticle dispersion liquid was determined in the same manner as described in the examples, and calculation was done using the standard curve and dilution ratio. And the solubility of quercetin in water was calculated according to the following formula:
Solubility (μg/mL)=detected quercetin concentration×dilution factor

[2] = Effect of temperature on stability of quercetin (retention rate); type: physicochemical; settings: water bath 60, 75 and 90° C. for 30 min
Protocol: Experimental method: The newly prepared free quercetin and quercetin-loaded composite nanoparticle dispersions were placed into glass-sealed bottles and heated in a water bath at 60, 75 and 90° C. for 30 min, respectively. It was then immediately cooled to room temperature at 25° C., and the amount of quercetin remaining in the sample was determined. The retention rate (%) of quercetin was calculated according to the following formula: […]

[3] = Effect of light (UV 253.7 nm) on stability of quercetin (retention rate); type: physicochemical; settings: after 210 min of ultraviolet light irradiation
Protocol: Experimental method: The freshly prepared free quercetin and quercetin-loaded composite nanoparticle dispersions were taken into transparent glass bottles in equal volume. It was then placed in a light cabinet of 0.24 m^3 and exposed to light with a wavelength of 253.7 nm, which was generated by a UV lamp with a power of 20 W. After exposure to light for 0, 30, 60, 90, 150, and 210 min, the stability of quercetin in different samples was studied, the residual quercetin content in the samples was determined, and the retention rate of quercetin (%) was calculated according to the following formula: […]

[4] = DPPH free radical scavenging method; type: biochemical; settings: 100 μM DPPH, 30 min in dark
Protocol: A 100 μM solution of DPPH (as-is) was prepared in dark using absolute ethanol. A volume of 2 mL DPPH solution was taken out and mixed well with 2 mL of sample solution, and allowed to react in dark at room temperature for 30 min. The absorbance at 517 nm of the mixture was measured using a UV-visible spectrophotometer. Distilled water and absolute ethanol were served as blank controls instead of samples. The formula for calculating the DPPH free radical scavenging rate of the sample was as follows:
Wherein, A0 represents blank; A1 is the sample with ethanol; A2 is the sample with DPPH solution.

[5] = Release of quercetin during in vitro gastrointestinal digestion simulation; type: in vitro ADME; settings: for release rate of quercetin: simulated gastric digestion
Protocol: Experimental method: The pH of 40 mL of freshly prepared free quercetin and quercetin composite nanoparticles dispersion was adjusted to 2.0 with 1 M HCl. After 10 min of preheating in a shaker (37° C., 100 rpm/min), 26.7 mg of pepsin was added and thoroughly mixed for 1 h to initiate simulated gastric digestion. After 1 h of digestion at 37° C., the pH of the pepsin digest was adjusted to 7.4 using 5 M NaOH. 200 mg of bile salts were added and mixed well in a shaker for 10 min. Then 13.6 mg of trypsin was added to start simulated intestinal digestion for 2 h. During the simulated gastrointestinal digestion process, 3 mL of digestion samples were collected at different digestion time (0, 30, 60, 90, 120, 150 and 180 min), and the enzyme was immediately inactivated with liquid nitrogen to terminate the reaction. The content of quercetin was determined, and the release rate (%) of quercetin was calculated according to the following formula: […]

O=c1c(O)c(-c2ccc(O)c(O)c2)oc2cc(O)cc(O)c12 [quercetin]
solubility of quercetin in water [1]: 7.05 µg/mL
thermal stability of quercetin [2]: poor thermal stability
retention rate of quercetin [3]: 60.08%
DPPH free radical scavenging rate [4]: 94.52%
quercetin released in the digestive juice ([5]; after subsequent simulated intestinal digestion): 90.09%
release rate of quercetin ([5]; 60 min): 64.06%
release rate of quercetin ([5]; first 30 min): 42.36%
